Experimental data from ChEMBL document CHEMBL1201862, “PubChem BioAssay data set” (2004).
The source made the active and inactive calls.

Columns and labels:
[1] = inhibitors of intracellular T. cruzi replication, confirmation, NIH3T3 host cells, beta-gal luminescence (AID 2044); assay type: functional, cell-based;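 also: intracellular parasites grown in NIH/3T3 mouse fibroblasts as host cells; luminescent beta-galactosidase reporter signal from transgenic T. cruzi replicating inside host cells; inhibitors lower the luminescence signal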
[2] = cytotoxicity toward NIH3T3 fibroblasts, dose response, counter-screen, cell-based, ATP luminescence, mouse fibroblasts (AID 2010); assay type: functional;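 also: cells exposed to compound for about 90 hours before reading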
[3] = target: T1, Replicative DNA helicase DnaB (Mycobacterium tuberculosis, UniProt P9WMR3); experiment: DnaB intein splicing inhibitors, dose response, biochemical, cell-free fluorescence (AID 449749); assay type: functional
T1 sequence (P9WMR3 whole entry): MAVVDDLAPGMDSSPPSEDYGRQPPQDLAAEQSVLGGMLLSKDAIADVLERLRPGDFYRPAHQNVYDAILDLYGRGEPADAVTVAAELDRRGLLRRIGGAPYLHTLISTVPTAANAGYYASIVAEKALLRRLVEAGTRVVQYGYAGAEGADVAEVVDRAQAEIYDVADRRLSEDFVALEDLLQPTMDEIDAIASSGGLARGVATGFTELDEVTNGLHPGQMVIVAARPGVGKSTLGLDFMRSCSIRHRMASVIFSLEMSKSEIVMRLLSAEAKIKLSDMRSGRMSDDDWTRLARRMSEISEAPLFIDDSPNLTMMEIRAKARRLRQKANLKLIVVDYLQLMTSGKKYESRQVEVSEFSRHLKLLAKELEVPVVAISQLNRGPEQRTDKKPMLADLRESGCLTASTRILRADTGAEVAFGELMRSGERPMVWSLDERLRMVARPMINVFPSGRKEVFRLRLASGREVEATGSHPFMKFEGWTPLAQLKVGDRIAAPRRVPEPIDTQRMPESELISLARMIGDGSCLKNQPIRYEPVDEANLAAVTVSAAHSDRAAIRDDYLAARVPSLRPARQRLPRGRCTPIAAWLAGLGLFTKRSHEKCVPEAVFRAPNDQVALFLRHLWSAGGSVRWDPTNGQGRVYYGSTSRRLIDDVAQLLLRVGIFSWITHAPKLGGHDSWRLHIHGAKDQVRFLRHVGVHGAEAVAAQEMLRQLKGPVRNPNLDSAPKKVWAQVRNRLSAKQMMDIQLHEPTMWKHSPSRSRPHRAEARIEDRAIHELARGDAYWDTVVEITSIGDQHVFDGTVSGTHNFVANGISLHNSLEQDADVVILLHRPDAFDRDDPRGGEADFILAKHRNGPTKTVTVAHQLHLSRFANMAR

Protein RecA = target: T2, Protein RecA (Mycobacterium tuberculosis, UniProt P9WHJ3); experiment: Fluorescence Cell-Free Homogeneous Dose Retest to Identify Inhibitors of RecA-Intein Splicing Activity. [Related pubchem assays (depositor defined):AID2097, AID2223, AID489010, AID492950]; assay type: functional
T2 sequence (P9WHJ3 whole entry): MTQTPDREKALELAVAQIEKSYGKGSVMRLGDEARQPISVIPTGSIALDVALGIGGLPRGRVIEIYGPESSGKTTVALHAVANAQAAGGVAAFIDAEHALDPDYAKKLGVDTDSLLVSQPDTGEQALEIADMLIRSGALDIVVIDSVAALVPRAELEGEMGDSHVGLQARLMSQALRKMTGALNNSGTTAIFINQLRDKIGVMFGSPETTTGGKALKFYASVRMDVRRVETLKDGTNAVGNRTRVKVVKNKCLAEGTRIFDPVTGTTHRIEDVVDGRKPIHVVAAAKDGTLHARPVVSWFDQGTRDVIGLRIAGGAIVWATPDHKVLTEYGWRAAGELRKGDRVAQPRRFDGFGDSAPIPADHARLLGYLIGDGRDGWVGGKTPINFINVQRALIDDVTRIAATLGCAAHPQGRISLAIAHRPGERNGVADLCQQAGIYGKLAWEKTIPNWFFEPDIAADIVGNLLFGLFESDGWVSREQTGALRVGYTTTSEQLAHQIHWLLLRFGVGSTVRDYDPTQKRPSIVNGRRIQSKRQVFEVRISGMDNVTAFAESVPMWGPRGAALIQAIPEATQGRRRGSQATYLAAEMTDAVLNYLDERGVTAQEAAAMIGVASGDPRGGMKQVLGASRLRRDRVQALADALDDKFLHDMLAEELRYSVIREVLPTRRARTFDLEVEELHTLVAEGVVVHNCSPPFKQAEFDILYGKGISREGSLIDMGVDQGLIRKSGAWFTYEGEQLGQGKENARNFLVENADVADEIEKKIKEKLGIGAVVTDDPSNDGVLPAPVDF

Genome polyprotein = Genome polyprotein (dengue virus type 2, UniProt P29990); experiment: Dengue-2 NS5 methyltransferase inhibitors, primary screen, biochemical, confirmation dose response (AID 588689); assay type: functional
[4] = Shn3 3'UTR reporter inhibitors, dose response, cell-based, Clone20 osteoblasts, firefly luciferase, cherry-picked (AID 624132); assay type: functional;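 also: firefly luciferase luminescence from reporter carrying the Shn3 3'UTR in osteoblasts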
[5] = HepG2 cell cytotoxicity, dose response, cytotoxicity control for Shn3 inhibitor project, CellTiter-Glo, cherry-picked (AID 624134); assay type: functional, cell-based
[6] = control 3'UTR Renilla luciferase suppression, dose response, counter-screen for Shn3 inhibitor project, cell-based, Clone20-Shn3RL, cherry-picked (AID 624133); assay type: functional
[7] = Fluorescence-based cell-based high throughput dose response assay for inhibitors of the interaction of nucleotide-binding oligomerization domain containing 2 (NOD2) and the receptor-interacting serine-threonine kinase 2 (RIPK2).; assay type: functional; details: Homo sapiens
[8] = HeLa cell cytotoxicity, dose response, cytotoxicity control for MgcRacGAP inhibitor project (AID 624300); assay type: functional
[9] = target: T3, Rac GTPase-activating protein 1 (Homo sapiens, UniProt Q9H0H5); experiment: MgcRacGAP GTPase-activating activity inhibitors, confirmation, biochemical, ADP Hunter fluorescence, primary and confirmatory (AID 624330); assay type: functional
T3 sequence (Q9H0H5 whole entry): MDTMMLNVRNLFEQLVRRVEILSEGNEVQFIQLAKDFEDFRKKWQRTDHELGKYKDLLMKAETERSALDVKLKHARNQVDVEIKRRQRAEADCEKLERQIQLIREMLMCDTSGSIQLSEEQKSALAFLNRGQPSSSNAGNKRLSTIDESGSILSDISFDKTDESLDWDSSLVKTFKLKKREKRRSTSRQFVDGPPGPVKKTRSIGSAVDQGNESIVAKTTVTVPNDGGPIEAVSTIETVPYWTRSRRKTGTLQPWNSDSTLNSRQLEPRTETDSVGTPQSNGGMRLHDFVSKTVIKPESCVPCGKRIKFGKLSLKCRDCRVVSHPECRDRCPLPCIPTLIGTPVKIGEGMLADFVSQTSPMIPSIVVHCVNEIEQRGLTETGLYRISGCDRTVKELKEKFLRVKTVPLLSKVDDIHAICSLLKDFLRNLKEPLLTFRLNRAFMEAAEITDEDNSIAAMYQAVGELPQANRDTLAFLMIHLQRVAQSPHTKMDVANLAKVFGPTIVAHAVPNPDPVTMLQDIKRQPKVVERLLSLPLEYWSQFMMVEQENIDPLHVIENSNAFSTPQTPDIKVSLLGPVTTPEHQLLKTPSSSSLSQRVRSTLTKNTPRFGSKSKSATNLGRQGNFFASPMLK

[10] = inhibitors of PGC1a acetylation in cells, dose response, cell-based, cherry-picked samples (AID 720514); assay type: functional;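 also: potency may reflect raised or lowered acetylation signal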
HEK293 [11] = experiment: NOD1 signaling inhibitors, primary screen, cell-based, luminescence, uHTS (AID 1578); assay type: functional; details: Homo sapiens
BJ [12] = experiment: cytotoxicity toward BJ-TERT fibroblasts, dose response, cell-based, RAS-independent, luminescence (AID 1933); assay type: functional; details: Homo sapiens
HEK293 [13] = experiment: cells; assay type: functional, cell-based; details: Homo sapiens
BJ [14] = experiment: cells; assay type: functional, cell-based; details: Homo sapiens
HEK293 [15] = experiment: cells; assay type: functional, cell-based; details: Homo sapiens; remark: listed apart in the source
HEK293 [16] = experiment: NOD2 signaling inhibitors in MDP-stimulated cells, cell-based, uHTS, luminescence (AID 2001); assay type: functional; details: Homo sapiens
BJ [17] = experiment: cytotoxicity toward BJ-TERT-LT-ST fibroblasts, dose response, cell-based, RAS-independent, luminescence (AID 1935); assay type: functional; details: Homo sapiens;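 also: BJ fibroblasts immortalized with TERT plus LT and ST oncogenes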
[18] = cytotoxicity toward DRD oncogenic fibroblasts, dose response, cell-based, non-viral oncogenic, luminescence (AID 1934); assay type: functional; details: Homo sapiens
[19] = cytotoxicity in HEK-293T cells, dose response, cytotoxicity control for TCR NF-kB inhibitor project, luminescence, T-cell screen hits (AID 489026); assay type: functional, cell-based;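 also: cells exposed to compound about 14 hours before the viability readout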
BJ [20] = experiment: cytotoxicity toward Ras-transformed BJeLR fibroblasts, dose response, cell-based, alamar blue fluorescence, cherrypicked samples (AID 2631); assay type: functional; details: Homo sapiens;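 also: confirmatory dose-response assay in RAS-dependent BJ fibroblasts engineered with TERT, LT and ST, with cytotoxicity read by fluorescence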
Paired box protein Pax-8 = Paired box protein Pax-8 (Homo sapiens, UniProt Q06710); experiment: inhibitors of PAX8-driven TPO luciferase reporter, dose response, RMG-I cells, cherry-pick (AID 687027); assay type: functional, cell-based;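 also: luciferase reporter driven by Pax8 target thyroperoxidase promoter measured by SteadyGlo luminescence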
[21] = non-specific cell cytotoxicity, dose response, cytotoxicity control for PAX8 inhibitor project, plate reader, dry powder samples (AID 743021); assay type: functional, cell-based
[22] = target: T4, RNA-binding protein pos-1 (Caenorhabditis elegans, UniProt G5EF15); experiment: inhibitors of POS-1/mex-3 RNA binding, dose response, biochemical, fluorescence polarization (AID 1964);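 also: purified POS-1 fused to maltose binding protein made in E. coli; potency of compounds blocking POS-1 binding to fluorescent RNA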
T4 sequence (G5EF15 whole entry): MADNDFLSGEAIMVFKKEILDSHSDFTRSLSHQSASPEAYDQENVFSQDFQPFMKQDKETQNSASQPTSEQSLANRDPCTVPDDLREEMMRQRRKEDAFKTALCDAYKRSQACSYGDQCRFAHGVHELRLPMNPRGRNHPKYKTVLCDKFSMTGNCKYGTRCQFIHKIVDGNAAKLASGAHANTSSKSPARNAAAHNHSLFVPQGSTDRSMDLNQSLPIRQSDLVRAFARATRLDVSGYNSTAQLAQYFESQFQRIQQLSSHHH

[23] = target: T5, Zinc finger protein mex-5 (Caenorhabditis elegans, UniProt Q9XUB2); experiment: MEX-5/TCR-2 RNA interaction inhibitors, dose response, biochemical, C. elegans, fluorescence polarization (AID 1960)
T5 sequence (Q9XUB2 whole entry): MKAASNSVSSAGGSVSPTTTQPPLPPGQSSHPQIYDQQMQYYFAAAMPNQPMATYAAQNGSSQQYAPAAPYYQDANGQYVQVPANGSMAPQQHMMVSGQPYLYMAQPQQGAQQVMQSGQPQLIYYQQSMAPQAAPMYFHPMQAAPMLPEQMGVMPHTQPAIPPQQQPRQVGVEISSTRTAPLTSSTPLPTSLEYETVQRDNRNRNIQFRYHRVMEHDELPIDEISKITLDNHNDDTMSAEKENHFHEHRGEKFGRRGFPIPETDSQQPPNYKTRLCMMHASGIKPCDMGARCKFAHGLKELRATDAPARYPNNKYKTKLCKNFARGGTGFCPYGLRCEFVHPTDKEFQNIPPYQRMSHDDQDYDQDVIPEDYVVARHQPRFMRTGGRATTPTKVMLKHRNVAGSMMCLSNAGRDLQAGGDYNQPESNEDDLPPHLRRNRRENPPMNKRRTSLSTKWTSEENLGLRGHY

Albumin = Albumin (Bos taurus, UniProt P02769); experiment: Counterscreen for inhibitors of T-cell receptor (TCR)-CD3 interaction: Fluorescence-based biochemical high throughput dose response assay to identify inhibitors of T-cell receptor (TCR)-CD3 interaction using a TAMRA-labeled BSA probe.; assay type: functional
[24] = A549 cell cytotoxicity, dose response, cytotoxicity control, plate reader, cherry-pick, antagonist series (AID 743412); assay type: functional, cell-based
[25] = HepG2 cell cytotoxicity, dose response, cytotoxicity control, plate reader, cherry-pick, antagonist series (AID 743416); assay type: functional, cell-based
[26] = LGR2 antagonists, dose response, cell-based, HEK293, CRE-luciferase reporter, cherry pick, set 2 (AID 743343); assay type: functional;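 also: transfected cells were stimulated with diluted bursicon conditioned medium after compound addition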
[27] = MC4R antagonists, dose response, counter-screen for LGR2 antagonist project, cell-based, plate reader, cherry pick (AID 743444); assay type: functional;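 also: transfected HEK 293 cells stimulated with alpha-MSH peptide; potency of inhibitors of the alpha-MSH evoked signal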
[28] = target: Disintegrin and metalloproteinase domain-containing protein 17 (Homo sapiens, UniProt P78536); experiment: exosite inhibitors of ADAM17, dose response, biochemical (AID 743260)
[29] = ADAM10 protease inhibitors, dose response, selectivity assay for ADAM17 exosite inhibitor project, biochemical, FRET peptide substrate, recombinant human ADAM10 (AID 743259);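 also: ADAM10 enzyme cleaving a FRET peptide substrate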

Sequence of Genome polyprotein (P29990 2492-3391 limits assumed): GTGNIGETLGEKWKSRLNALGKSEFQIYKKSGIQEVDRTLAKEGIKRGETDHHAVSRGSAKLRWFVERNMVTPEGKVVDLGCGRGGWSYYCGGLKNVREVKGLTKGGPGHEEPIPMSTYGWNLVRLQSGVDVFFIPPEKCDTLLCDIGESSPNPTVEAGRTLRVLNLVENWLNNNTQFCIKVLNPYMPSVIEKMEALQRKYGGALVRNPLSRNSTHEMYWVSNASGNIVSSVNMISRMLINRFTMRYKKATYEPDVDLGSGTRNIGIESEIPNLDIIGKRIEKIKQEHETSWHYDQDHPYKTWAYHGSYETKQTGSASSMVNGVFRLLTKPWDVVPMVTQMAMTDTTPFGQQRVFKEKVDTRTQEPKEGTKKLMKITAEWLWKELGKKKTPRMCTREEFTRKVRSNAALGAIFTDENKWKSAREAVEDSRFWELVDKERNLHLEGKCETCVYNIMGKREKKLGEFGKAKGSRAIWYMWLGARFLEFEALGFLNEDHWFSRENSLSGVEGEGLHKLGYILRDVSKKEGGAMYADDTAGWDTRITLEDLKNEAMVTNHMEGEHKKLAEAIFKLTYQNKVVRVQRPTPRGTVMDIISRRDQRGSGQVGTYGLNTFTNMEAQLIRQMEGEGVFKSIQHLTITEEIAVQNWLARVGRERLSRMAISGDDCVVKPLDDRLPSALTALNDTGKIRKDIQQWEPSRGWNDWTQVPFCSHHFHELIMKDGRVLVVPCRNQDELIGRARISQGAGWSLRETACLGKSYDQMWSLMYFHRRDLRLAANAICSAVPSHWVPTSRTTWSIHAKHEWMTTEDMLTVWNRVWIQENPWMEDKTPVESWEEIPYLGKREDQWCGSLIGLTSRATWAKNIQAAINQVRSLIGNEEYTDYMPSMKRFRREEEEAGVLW
Sequence of Disintegrin and metalloproteinase domain-containing protein 17 (P78536 whole entry, the tested form may be a part): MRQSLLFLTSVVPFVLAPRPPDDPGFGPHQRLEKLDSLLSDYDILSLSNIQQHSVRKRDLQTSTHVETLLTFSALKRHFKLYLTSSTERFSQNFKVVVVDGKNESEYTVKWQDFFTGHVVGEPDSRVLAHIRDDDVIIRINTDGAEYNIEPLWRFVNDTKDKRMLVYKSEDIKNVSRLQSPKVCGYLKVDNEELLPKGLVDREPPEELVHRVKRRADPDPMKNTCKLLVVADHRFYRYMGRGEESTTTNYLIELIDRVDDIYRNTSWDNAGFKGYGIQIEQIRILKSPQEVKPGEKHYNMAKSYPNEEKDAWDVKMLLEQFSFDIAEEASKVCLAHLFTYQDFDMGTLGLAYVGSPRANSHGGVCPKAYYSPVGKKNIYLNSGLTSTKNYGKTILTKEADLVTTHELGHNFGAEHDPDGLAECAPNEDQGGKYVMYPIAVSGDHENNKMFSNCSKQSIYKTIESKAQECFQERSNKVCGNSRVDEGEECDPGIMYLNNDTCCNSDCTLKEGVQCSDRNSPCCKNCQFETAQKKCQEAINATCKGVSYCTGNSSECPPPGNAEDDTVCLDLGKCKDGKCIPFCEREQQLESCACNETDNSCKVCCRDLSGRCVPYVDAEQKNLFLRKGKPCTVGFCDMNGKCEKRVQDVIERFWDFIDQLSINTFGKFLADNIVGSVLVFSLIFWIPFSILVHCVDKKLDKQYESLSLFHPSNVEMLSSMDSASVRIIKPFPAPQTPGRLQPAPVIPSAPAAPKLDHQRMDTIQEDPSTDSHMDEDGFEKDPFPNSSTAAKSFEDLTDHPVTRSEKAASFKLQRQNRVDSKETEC
Sequence of Paired box protein Pax-8 (Q06710 whole entry): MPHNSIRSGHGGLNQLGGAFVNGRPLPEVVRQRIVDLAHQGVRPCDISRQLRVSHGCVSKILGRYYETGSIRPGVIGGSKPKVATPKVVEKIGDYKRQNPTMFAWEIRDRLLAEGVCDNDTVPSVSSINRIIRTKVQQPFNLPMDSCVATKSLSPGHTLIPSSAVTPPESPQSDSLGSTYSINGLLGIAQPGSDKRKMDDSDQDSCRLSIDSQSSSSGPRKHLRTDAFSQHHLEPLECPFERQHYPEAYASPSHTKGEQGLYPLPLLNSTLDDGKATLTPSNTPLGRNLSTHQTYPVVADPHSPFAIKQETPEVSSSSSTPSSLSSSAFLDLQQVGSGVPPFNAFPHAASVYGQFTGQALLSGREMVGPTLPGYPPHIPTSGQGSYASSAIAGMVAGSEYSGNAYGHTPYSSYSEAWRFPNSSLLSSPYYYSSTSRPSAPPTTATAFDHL
Sequence of Albumin (P02769 whole entry): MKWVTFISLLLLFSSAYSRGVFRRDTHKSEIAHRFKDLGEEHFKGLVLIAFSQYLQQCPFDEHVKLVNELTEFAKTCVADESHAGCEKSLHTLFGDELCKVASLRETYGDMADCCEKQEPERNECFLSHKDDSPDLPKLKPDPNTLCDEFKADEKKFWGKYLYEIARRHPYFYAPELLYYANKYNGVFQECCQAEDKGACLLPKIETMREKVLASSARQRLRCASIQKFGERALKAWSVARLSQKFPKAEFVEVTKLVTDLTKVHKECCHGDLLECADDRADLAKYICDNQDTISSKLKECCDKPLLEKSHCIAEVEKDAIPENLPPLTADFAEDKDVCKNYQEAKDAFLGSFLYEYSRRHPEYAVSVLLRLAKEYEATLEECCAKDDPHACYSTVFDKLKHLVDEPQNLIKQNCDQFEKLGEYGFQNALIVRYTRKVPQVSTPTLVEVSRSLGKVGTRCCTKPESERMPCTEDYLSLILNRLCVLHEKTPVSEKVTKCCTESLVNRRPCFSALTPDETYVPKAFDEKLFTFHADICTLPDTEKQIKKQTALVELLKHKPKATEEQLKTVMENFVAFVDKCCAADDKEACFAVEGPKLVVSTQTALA

O=C(Nc1ccccc1)C1=C(c2ccccc2)S(=O)(=O)CCS1(=O)=O
active: EC50 [1] 1.31 µM | EC50 [2] 2.06 µM | AC50 [3] 1.42 µM | EC50 (Protein RecA) 0.682 µM | IC50 (Genome polyprotein) > 100 µM | AC50 [4] 1.37 µM | AC50 [5] 15.4 µM | AC50 [6] 10.3 µM | IC50 [7] 3.59 µM | CC50 [8] 71.9 µM | IC50 [9] 123 µM | AC50 [10] 8.27 µM

COc1ccc(C(C(=O)NC2CCCCC2)N(C(=O)CCl)c2ccc(C)cc2)cc1 (centres undefined)
inconclusive: EC50 (BJ [12]) 0.84 µM
active: EC50 (HEK293 [11]) 15.6 µM | IC50 (HEK293 [13]) 5.75 µM | EC50 (BJ [14]) 2.63 µM | IC50 (HEK293 [15]) 17.5 µM | IC50 (HEK293 [16]) 7.21 µM | EC50 (BJ [17]) 6.27 µM | EC50 [18] 0.748 µM | EC50 (BJ [20]) 9.18 µM | AC50 (Paired box protein Pax-8) 0.533 µM | AC50 [21] 0.827 µM
inactive: IC50 [19] > 80 µM

CCC(=O)Nc1ccc2nc3c(O)nc(S)nc3nc2c1
inactive: IC50 (Albumin) > 94.1 µM
active: EC50 [22] 20.9 µM | EC50 [23] 12.3 µM | IC50 (Genome polyprotein) 39.4 µM

O=C(Nc1ccc2c(c1)OCCO2)c1ccc(Cl)cc1Cl
inactive: AC50 [24] > 52 µM | AC50 [25] > 52 µM
active: AC50 [26] 11.6 µM | AC50 [27] 15.2 µM

CCN1C(=O)/C(=C/c2ccc(C)s2)NC1=S
inactive: IC50 [28] > 69.5 µM | IC50 [29] > 69.5 µM
